The subject of data set [1] is FATP1. Kind of data set: Membrane fractionation and immunoblot, FATP1. The class given is cell-based. The note with it: differentiated WT-1 brown adipocytes, 1 μM for 15 minutes. The protocol:
(§1) WT-1 brown preadipocytes were differentiated according to a standard adipogenic differentiation protocol for 9 days before cells were serum starved for 1 hour. Cells were treated with 1 μM 12,13-diHOME or methyl acetate vehicle in 0.1% BSA w/v in PBS for 15 minutes before cells were scraped from tissue culture plates into homogenization buffer and membranes were separated according to previously published protocols (Nishiumi, S. & Ashida, H., Bioscience, biotechnology, and biochemistry. 71, 2343-2346 (2007)). Protein lysates were stored at −20° C. until further use. Protein concentrations were determined by using the Pierce BCA kit (Life Technologies) according to instructions. For immunoblots, lysates were diluted into Laemmli buffer and boiled, then loaded onto 10% Tris gels for SDS-PAGE. After complete separation of the proteins, these were transferred on a PVDF membrane (Amersham Biosciences), blocked in western blocking buffer (Roche), and primary antibodies listed in Table 1, below, were applied in blocking buffer over night at 4° C. After washing 4× for 15 min with TBS-T, secondary antibodies were applied for 1 h in blocking buffer. Membranes were washed again 3× times for 15 min in TBS-T and developed using chemiluminescence (ThermoFisher). After scanning films, densitometry was analyzed using ImageJ software.

Data set [2] deals with BAT. Put plainly: In vivo radiolabeled organ distribution studies (oleate, glucose, triolein). The note with it: mice. The protocol:
For in vivo fatty acid organ distribution studies, an oleate/^3H-oleate tracer mix was complexed to fatty acid-free BSA (Schlein, et al., Cell Metab. 23, 441-453 (2016)) and injected into the tail vein of wild type C57BL/6J mice 15 minutes after treatment with either vehicle, 1 μg/kg body weight 12,13-diHOME in 0.1% BSA PBS or NE. Similarly, radiolabeled organ distribution studies were performed in mice either by injection into the tail vein with 2-desoxy-D-[^14C]-glucose (PerkinElmer, 0.025 mCi per kg) in PBS or orally gavaged with 10 mL/kg olive oil (Sigma) containing [9,10-^3H(N)]-triolein (PerkinElmer, 0.3 mCi/kg). In all assays, organs were harvested after 15 minutes under terminal anesthesia and systemic perfusion with PBS-heparin (10 U/ml) via the left heart ventricle. Tissues were homogenized by using Solvable (PerkinElmer) and disintegrations per minute per organ data were calculated by scintillation counting.

Data set [3] can be described thus: Blood pressure and pulse by the tail cuff method. The class given is in vivo. The note with it: mice, acute pretreatment. The procedure: (§2) For cold tolerance assay, mice were injected retro-orbitally with 1 μg/kg body weight 12,13-diHOME (purchased from Cayman Chemical Company) in 0.1% w/v BSA in PBS or vehicle, then immediately placed in a cold room maintained at 4° C. and body core temperature was determined by rectal probe measurements. Mice injected retro-orbitally were also used to measure blood pressure and pulse with the tail cuff method (Hatteras Instruments).

A short description of data set [4]: CLAMS study in cold conditions (4° C.). The class given is in vivo. The note with it: mice, 1 μg/kg intravenously, 1 h at cold (4° C.). The protocol:
For CLAMS studies, mice were injected intravenously with 1 μg/kg body weight 12,13-diHOME in 0.1% BSA PBS or vehicle and then monitored using the CLAMS system in cold conditions (4° C.) for 1 hour. Respiratory exchange ratio (R.E.R.) was calculated as the ratio of total carbon dioxide produced to total oxygen consumed.

Data set [5] relates to CD36. Kind of data set: Membrane fractionation and immunoblot, CD36. The note with it: differentiated WT-1 brown adipocytes, 1 μM for 15 minutes. The class given is cell-based. The protocol:
as §1
A general note: In western blotting, separated proteins are transferred to a membrane and probed.

Data set [6] has as its system BAT. Kind of data set: In vivo bioluminescent fatty acid uptake (FFA-SS-Luc) in UCP1cre+/− Rosa(stop)Luc+/− mice. The note with it: 1 ug/kg, compared to vehicle. The protocol: For in vivo bioluminescent fatty acid uptake experiments, UCP1cre^+/- mice (Stock no. 024670) were bred with Rosa(stop)Luc^+/+ (Stock no. 005125), both obtained from The Jackson Laboratory. Male offspring carrying the UCP1-cre allele were injected retro-orbitally with 1 ug/kg body weight 12,13-diHOME in 0.1% BSA PBS or vehicle, and all mice were co-injected with 2 μm FFA-SS-Luc ([…] Medical). Mice were anesthetized with isofluorane and imaged using the IVIS Spectrum CT using sequential 30 s exposures for 1 hour. Data was analyzed using Living Image Software and movies were assembled from individual images using ImageJ.

Data set [7] deals with WT-1 brown adipocytes. Kind of data set: Seahorse Bioanalyzer oxygen consumption. The class given is cell-based. The procedure: WT-1 brown preadipocytes were seeded onto gelatin coated Seahorse Plates and differentiated according to standard protocols. Cells were starved for 1 h, then treated for 15 min with 1 μM 12,13-diHOME or methyl acetate vehicle. The oxygen consumption rates (OCR) were monitored in 200 μM palmitic acid plus 100 μM albumin in a Seahorse XF24 instrument using the standard protocol of 3 min mix, 2 min wait, and 3 min measure. For the normalization of respiration to protein content, cells were lysed in RIPA buffer and protein concentration was measured using the Pierce BCA kit (Life Technologies).

Data set [8] in a line: Daily injections of 12,13-diHOME in diet-induced obese mice. The class given is in vivo. The protocol:
For the experiments with daily injections of 12,13-diHOME, mice were fed with a high-fat diet containing 60 kcal % fat (Research Diets Stock no. D12492) for 16 weeks prior to treatment and during the course of the experiment. Mice were first injected intraperitoneally daily with 1 ug/kg body weight, 12,13-diHOME in 0.1% BSA w/v in PBS or vehicle and body for one week, then injected every day with 10 ug/kg body weight two weeks. For all experiments, serum was collected and triglycerides were measured using a standard enzymatic assay (ZenBiosystems). Non-esterified FA were also measured with a colorimetric assay (Wako Chemicals USA). High-density and low-density lipoprotein fractions were isolated and cholesterol was measured with a colorimetric assay (Abcam). All mice were allowed ad libitum access to water and food.

Data set [9] is described as follows: Oral lipid tolerance test. The class given is in vivo. The note with it: mice given an oral bolus of triglyceride, serum triglyceride.
Data set [10] is described as follows: Cold tolerance assay (body core temperature at 4° C.). The class given is in vivo. The note with it: mice, 1 μg/kg retro-orbitally, cold challenge at 4° C., compared to vehicle and 12,13-epOME. The protocol: as §2
[11] abbreviates: diet-induced obese mice, daily for 2 weeks at 10 μg/kg body weight.
The mark [12] stands for this setting: obese mice, chronic treatment (i.e., one week).

Entries after “also recorded” stand apart in the source; their conditions may differ.

As to `CCCCCC(O)C(O)C/C=C\CCCCCCCC(=O)O` (centres unmarked) [12,13-diHOME, 12,13-dihydroxy-9Z-octadecenoic acid], the “membrane translocation of oligomeric FATP1” value in data set [1] is “robustly induced”. Besides, the “FA uptake into BAT” value in data set [2] (1 μg/kg, radiolabeled oleate, similar level achieved by NE) was “significant increase”. The “glucose uptake into BAT” value in data set [2] (radiolabeled glucose, similar level achieved by NE) is “significant increase”. The “BAT specific uptake of radiolabeled triglyceride” value in [2] (triglyceride delivered by oral gavage) is “enhanced”. Further, in [3], the blood pressure entry was “no effect”, the diastolic pressure entry was “very transient increase” and the pulse entry is given as “no effect”. In data set [4], the carbon dioxide production entry is listed as “significant increases”, the oxygen consumption entry was “significant increases” and the respiratory exchange ratio entry is “decrease”. Further, the “membrane translocation of the low glycosylation form of CD36” value in [5] is reported as “robustly induced”. In addition, the “luminescent signal in BAT (brown adipocyte FA uptake)” value in [6] was “significantly increased”. The basal respiration result in data set [7] (1 μM for 15 min) is “significantly increased”. For the same compound, in data set [7] (data not shown), the maximal respiratory capacity entry is on record as “no effect” and the uncoupling entry is on record as “no effect”. In data set [8] (setting [11]), the body weight result is recorded as “no effect”, the “circulating non-esterified FA” value is “no effect”, the circulating triglyceride levels result is recorded as “significantly decreased” and the glucose tolerance entry is listed as “no effect”. Further, in data set [8] (setting [12]), the body weight entry is recorded as “without alteration” and the circulating triglyceride entry was “significant reduction”. Also, in [9], the oral lipid tolerance entry was “improved”. Further, the “body temperature during cold challenge” value in data set [10] is “protected mice from the decrease in body temperature; also recorded: protected mice from cold challenge”.

The values above are taken from patent US11433042B2, “Methods and compositions for treating metabolic disorders” (Joslin Diabetes Center, Inc., priority 2017, dated 2022).
